Source: patent US11197856B2, “Bicyclic compounds and methods for their use in treating autism” (priority 2013, dated 2021)

Tests used:
[1] = system: hippocampal LTP in MeCP2 deficient mice; assay: Hippocampal long-term potentiation (fEPSP slope) in MeCP2 deficient mice; type: in vivo; settings: MeCP2 deficient mice at 9 weeks; vs saline
From the text: MeCP2 deficient mice have been previously reported to suffer from functional and ultrastructural synaptic dysfunction, significant impairment of hippocampus-dependent memory and hippocampal long-term potentiation (LTP) (Moretti et al. The Journal of Neuroscience. 2006. 26(1):319-327). To test the effects of the cG-2-AllylP treatment on synaptic function in the RTT model we compare hippocampal LTP in both vehicle and cG-2-AllylP-treated animals at 9 weeks of age. To do so, we measure the slope of the fEPSP as a % of baseline potential in neurons in slices of hippocampus from MeCP2 deficient mice treated with either saline or cG-2-AllylP.

[2] = system: layer 5 pyramidal neurons in sections of motor cortex; assay: Golgi staining of cortical dendritic spines; type: in vivo, mice; settings: knockout neurons; P28
Experimental: Samples (<1 cm) from P28 mice are fixed in 10% formalin and 3% potassium bichromate for 24 hours. Tissue is then transferred into 2% silver nitrate for 2 days in the dark at room temperature. Sections from these samples are then cut at 30 μm thickness into distilled water. Sections corresponding to motor cortex are mounted onto slides, air dried for 10 minutes, and then dehydrated through sequential rinses of 93% alcohol, 100% alcohol, and xylene, and then sealed with a coverslip. Images re acquired at 10× (whole cell) and 100× (spine imaging) using a Zeiss Pascal 3 Exciter confocal microscope.
We use Golgi staining to label neurons sparsely and distinctly, and applied high-resolution confocal imaging to measure dendritic spine density and morphology in the labelled cells, restricting analysis to layer 5 pyramidal neurons in sections of motor cortex from critical period mice (P28).
While low-magnification imaging clearly delineates the extent of the dendrites of the pyramidal cells we use higher magnifications to count synaptic contacts and determine the morphological class of each spine. We classify spines as either large and bulbous (“mushroom”, M), short and stubby (“stubby”, S), short and thin (“thin”, T) or filopodia (F).

[3] = system: fmr1-knockout mice and wild-type littermates; assay: Successive Alleys Test; type: in vivo
Experimental: The fmr1-knockout (KO2) mice (C57BL/6 background) were housed in groups of the same genotype in a temperature and humidity controlled room with a 12-h light-dark cycle (lights on 7 am to […]). Testing was conducted during the light phase. Food and water were available ad libitum. Testing was conducted on fmr1-knockout mice and their wild-type littermates. Experiments were conducted according to requirements of the UK Animals (Scientific Procedures) Act, 1986. The animals were divided into four groups:
In one study, we used a “Successive Alleys Test” device. This device consists of four successive, linearly connected increasingly anxiogenic alleys. Each succeeding alley was painted a lighter color, had lower walls and/or was narrower than the previous alley. Animals were placed at the closed end of alley 1 (A1), facing the end wall. The latency to first enter each alley (A2, A3, and/or A4), the amount of time spent in each alley, and the number of entries into each alley were recorded during a total test time of 300 seconds.
For a Successive Alleys Test, we measured the number of entries in Alley 1 (A1), Alley 2 (A2), Alley 3 (A3), and Alley 4 (A4) for each of the 4 groups of animals described above.

[4] = system: cerebellar explants; assay: Cerebellar explants, glutamate/3-nitropropionic acid neurotoxicity; type: cell-based, Wistar rats
Experimental: Cover slips were placed into a large Petri dish and washed in 70% alcohol for 5 minutes, then washed with Millipore H2O. The cover slips were air dried, and coated with Poly-D-Lysine (1 mg/ml stock solution in PBS, 90-100 μl) for 2 hours at 34° C.
Postnatal day 8 Wistar rats were used for the study. The rats were sacrificed and placed in ice for 1 minute, decapitated and the cerebellum removed and placed on ice. Cerebellum tissue was placed in 1 ml of 0.65% glucose-supplemented PBS (10 μl 65% stock D (+)glucose/1 ml PBS) in a large Petri dish, chopped up into smaller sections and triturated with a 1 ml insulin syringe via a 23 G (0.4 mm) needle, and then squirted back into the glucose solution in the large Petri dish. The tissue was sieved through (125 μm pore size gauze) and centrifuged (2 minutes at 60 g) twice to exchange the medium into serum-free BSA-supplemented START V medium (Biochrom, Germany). The second centrifugation step was done with 1 ml of START V medium. The microexplants were reconstituted into 500 μl of START V medium and put on ice.
Two hours after PDL-coating, the slides were washed with Millipore H2O and air dried. Each slide was placed into a small Petri dish (diameter: 35 mm) and 40 μl of START V/cell suspension was added. The tissue was incubated for 2 hours at 34° C. (settlement period). START V-medium (1 ml) was then added to the Petri dish and cultivated at 34° C. in the presence of 5% CO2 in air at 100% humidity for 48 hours.
For the study, certain explant cultures were exposed to vehicle (PBS) only. In the first study (Study 1) 10 μl of toxin 1 (L-glutamate—100 mM in Millipore water; final concentration; 1 mM) and 10 μl of toxin 2 (3-nitropropionic acid—50 mM—pH 7—in Millipore water, final concentration: 0.5 mM) was applied simultaneously with the drug to be tested ([…]). In each case, the drugs were left in contact with the explants for the duration of the study.
After explants were exposed to drugs for the study period, cells were then rinsed in PBS and then fixed in increasing concentrations of paraformaldehyde (500 μl of 0.4% PFA was applied; then 1.2% PFA; then 3% PFA and finally 4% PFA (each fixation step: 2-3 minutes). Finally, the microexplants were rinsed in PBS.
Neurons in the explants were then evaluated for morphology (presence of neurites) and counted as live cells per microscopic field. Four fields displaying highest cell density were counted per cover slip and the data presented as mean±standard error of the mean (SEM); n=4 each. Statistical significance was evaluated by using the non-paired Student's t-test.

`C=CC[C@]12CCCN1C(=O)CNC2=O` [cG-2-AllylP, (8aS)-Allyl-hexahydropyrrolo[1,2-a]pyrazine-1,4-dione] was tested, and the “slope of fEPSP (hippocampal LTP)” value [1] was “increases the slope of fESPS”, the “density of spines per unit branch” value [2] was “largely ameliorated in the knockout with treatment” and the “number of entries into arm A1” value ([3]; fmr1-knockout animals) was “about 4 times”. For the same molecule, the “number of entries into arm A2” value ([3]; fmr1-knockout animals) was “about 4 times”, the “number of entries into arm A3” value ([3]; fmr1-knockout animals) was “about 4 times” and the “number of entries into arm A4” value ([3]; fmr1-knockout animals) was “about 3 times”. The open arm entries ([3]; fmr1-knockout animals vs vehicle, p<0.001) was “significant reduction in open arm entries”, the “time spent in the center” value ([3]; fmr1-knockout animals vs vehicle, p<0.005) was “significant reduction” and the “number of entries into arm A1” value ([3]; wild-type animals) was “about 2 times”. The “number of entries into arm A2” value ([3]; wild-type animals) was “about 4 times”, the “numbers of cells having neurites” value ([4]; administered simultaneously with glutamate) was “significantly increased the numbers of cells having neurites in a dose-dependent manner” and the glutamate-induced neurotoxicity ([4]; low doses (cG-2-AllylP: 100 pm to 10 nm)) was “significant decrease in glutamate-induced neurotoxicity”.
